Laboratory results from BindingDB's records for doi:10.1021/acschembio.5b01018 (Stony Brook University, 2016).
pKd: −log10 of the molar value.

Target: T1, Tyrosine-protein kinase ABL1 [229-512] (Homo sapiens, UniProt P00519)
T1 construct: 229-512
T1 sequence (P00519 whole entry): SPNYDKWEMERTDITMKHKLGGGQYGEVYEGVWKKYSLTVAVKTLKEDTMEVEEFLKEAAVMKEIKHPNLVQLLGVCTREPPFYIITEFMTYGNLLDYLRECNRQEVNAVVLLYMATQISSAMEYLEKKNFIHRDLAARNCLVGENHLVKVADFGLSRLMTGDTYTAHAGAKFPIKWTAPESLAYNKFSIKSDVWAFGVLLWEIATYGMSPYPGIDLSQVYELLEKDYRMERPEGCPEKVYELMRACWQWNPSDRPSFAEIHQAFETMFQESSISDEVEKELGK
Assay: Kinome-Wide Inhibitor Profiling for Phosphorylated c-Abl
Description: Inhibitor selectivity profiles were obtained through Luceome Biotechnologies (Tuscon, AZ). Each inhibitor was screened at 0.5 μM against phosphorylated c-Abl.

| Compound | pKd |
| --- | --- |
| Cc1nc(Nc2ncc(C(=O)Nc3cc(NC(=O)c4cccc(C(F)(F)F)c4)ccc3C)s2)cc(N2CCN(CCO)CC2)n1 [DAS-DFGO-II] | 8.70 |
| Cc1nc(Nc2ncc(C(=O)Nc3cccc(NC(=O)c4cccc(C(F)(F)F)c4)c3)s2)cc(N2CCN(CCO)CC2)n1 [DAS-DFGO-I] | 8.74 |
